Experimental data published in ChEMBL document CHEMBL5108044, “Discovery of a Novel Potent STAT3 Inhibitor HP590 with Dual p-Tyr705/Ser727 Inhibitory Activity for Gastric Cancer Treatment” (J Med Chem, 2022).
Calls of active or inactive are those of the source. The calls are words filed in the database; no cut-off is given here.

Assays:
MGC-803 [1] = test: Inhibition of colony formation in STAT3 knockdown human MGC-803 cells assessed as reduction in number of colonies incubated for 5 to 7 days by crystal violet staining based assay; type: functional, cell-based; details: time 5-7 day
MKN-45 [2] = test: Induction of apoptosis in human MKN-45 cells assessed as viable cells at 10 nM incubated for 48 hrs by FITC-annexin V/propidium iodide staining based flow cytometry (reference value: 68%); type: functional; details: read-out: Activity
AGS [3] = test: Induction of apoptosis in human AGS cells assessed as viable cells at 10 nM incubated for 48 hrs by FITC-annexin V/propidium iodide staining based flow cytometry (reference value: 87.2%); type: functional; details: read-out: Activity
AGS [4] = test: Induction of apoptosis in human AGS cells assessed as early apoptic cells 20 nM incubated for 48 hrs by FITC-annexin V/propidium iodide staining based flow cytometry (reference value: 0.55%); type: functional
[5] = biological target: T1, Signal transducer and activator of transcription 3 (Homo sapiens, UniProt P40763); test: Inhibition of STAT3 in human MGC-803 cells assessed as downregulation of cyclin D1 expression incubated up to 24 hrs by western blot analysis; type: cell-based; details: dose <= 40.0 nM, DDE = dose-dependent effect
T1 sequence (P40763 whole entry): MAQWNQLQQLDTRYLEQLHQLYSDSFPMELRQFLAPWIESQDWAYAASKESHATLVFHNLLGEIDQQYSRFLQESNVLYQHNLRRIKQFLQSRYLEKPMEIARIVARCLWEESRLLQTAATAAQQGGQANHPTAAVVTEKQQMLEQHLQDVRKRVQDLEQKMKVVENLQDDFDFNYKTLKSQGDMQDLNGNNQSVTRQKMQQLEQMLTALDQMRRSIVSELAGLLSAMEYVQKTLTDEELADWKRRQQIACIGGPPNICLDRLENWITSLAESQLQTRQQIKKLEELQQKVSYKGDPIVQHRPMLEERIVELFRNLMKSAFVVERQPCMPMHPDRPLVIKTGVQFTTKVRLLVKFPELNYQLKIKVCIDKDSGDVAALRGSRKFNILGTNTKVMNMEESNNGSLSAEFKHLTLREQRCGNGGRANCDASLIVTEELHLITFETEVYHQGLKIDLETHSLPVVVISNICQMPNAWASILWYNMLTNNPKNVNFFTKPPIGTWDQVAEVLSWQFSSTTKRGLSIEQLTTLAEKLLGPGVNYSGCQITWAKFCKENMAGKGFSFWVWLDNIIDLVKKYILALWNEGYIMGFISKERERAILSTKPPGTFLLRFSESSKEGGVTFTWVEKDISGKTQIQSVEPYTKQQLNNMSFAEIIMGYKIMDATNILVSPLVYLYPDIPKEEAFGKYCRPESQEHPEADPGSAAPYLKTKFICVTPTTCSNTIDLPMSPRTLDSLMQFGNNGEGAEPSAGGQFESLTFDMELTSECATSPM

[6] = biological target: T1, Signal transducer and activator of transcription 3; test: Inhibition of STAT3 in human MKN-45 cells assessed as downregulation of c-myc expression at 10 to 40 nM incubated for 24 hrs by RT-PCR analysis; type: cell-based; details: dose 10-40 nM
MKN-45 [7] = test: Induction of apoptosis in human MKN-45 cells assessed as early apoptic cells 5 nM incubated for 48 hrs by FITC-annexin V/propidium iodide staining based flow cytometry (reference value: 2.79%); type: functional
[8] = biological target: T1, Signal transducer and activator of transcription 3; test: Inhibition of STAT3 in human AGS cells assessed as downregulation of cyclin D1 expression at 10 to 40 nM incubated for 24 hrs by RT-PCR analysis; type: cell-based; details: dose 10-40 nM
AGS [9] = test: Antiproliferative activity against human AGS cells assessed as reduction in cell viability incubated for 72 hrs by MTS assay; type: functional, cell-based
[10] = biological target: T1, Signal transducer and activator of transcription 3; test: Inhibition of STAT3 in human MKN-45 cells assessed as downregulation of c-Myc expression up to 40 nM by western blot analysis; type: cell-based; details: time <= 24.0 hrs, DDE = dose-dependent effect
MKN-45 [11] = test: Inhibition of mitochondrial respiration in STAT3 knockdown human MKN-45 cells assessed as oxygen consumption rate incubated for 80 mins […]; type: functional, cell-based
Cytochrome P450 3A4 = Cytochrome P450 3A4 (Homo sapiens, UniProt P08684); test: Inhibition of CYP3A4 in human liver microsome; type: ADME, microsomes
Sequence of Cytochrome P450 3A4 (P08684 whole entry): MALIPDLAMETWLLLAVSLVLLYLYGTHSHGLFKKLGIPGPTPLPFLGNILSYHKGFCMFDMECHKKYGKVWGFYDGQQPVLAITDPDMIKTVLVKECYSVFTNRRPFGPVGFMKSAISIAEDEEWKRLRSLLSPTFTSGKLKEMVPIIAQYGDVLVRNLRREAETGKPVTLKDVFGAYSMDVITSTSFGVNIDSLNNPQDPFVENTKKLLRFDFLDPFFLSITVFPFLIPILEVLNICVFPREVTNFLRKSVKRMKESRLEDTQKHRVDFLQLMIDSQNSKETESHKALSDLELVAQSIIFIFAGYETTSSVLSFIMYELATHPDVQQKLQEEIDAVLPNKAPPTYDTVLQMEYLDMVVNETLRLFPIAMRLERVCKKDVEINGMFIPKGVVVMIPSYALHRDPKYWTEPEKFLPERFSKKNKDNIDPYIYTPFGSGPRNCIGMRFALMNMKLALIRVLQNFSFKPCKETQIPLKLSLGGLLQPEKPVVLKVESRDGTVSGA

MKN-45 [12] = test: Antitumor activity against human MKN-45 cells xenografted in BALB/c nude mouse assessed as decrease in tumor volume at 25 mg/kg, po qd measured for 5 weeks; type: functional, organism-based
[13] = biological target: T1, Signal transducer and activator of transcription 3; test: Inhibition of IL-6 induced STAT3 phosphorylation at Tyr705 residue in human MGC-803 cells at 40 nM preincubated for 24 hrs followed by IL-6 stimulation and measured after 30 min by Western blotting analysis; type: cell-based; details: time 24.5 hrs
MGC-803 [14] = test: Antiproliferative activity against human MGC-803 cells assessed as cell viability incubated for 72 hrs by MTS assay; type: functional, cell-based; details: dose <= 100.0 nM, DDE = dose-dependent effect
[15] = biological target: Mitogen-activated protein kinase 8 (Homo sapiens, UniProt P45983); test: Inhibition of JNK1 (unknown origin)
Sequence of Mitogen-activated protein kinase 8 (P45983 whole entry): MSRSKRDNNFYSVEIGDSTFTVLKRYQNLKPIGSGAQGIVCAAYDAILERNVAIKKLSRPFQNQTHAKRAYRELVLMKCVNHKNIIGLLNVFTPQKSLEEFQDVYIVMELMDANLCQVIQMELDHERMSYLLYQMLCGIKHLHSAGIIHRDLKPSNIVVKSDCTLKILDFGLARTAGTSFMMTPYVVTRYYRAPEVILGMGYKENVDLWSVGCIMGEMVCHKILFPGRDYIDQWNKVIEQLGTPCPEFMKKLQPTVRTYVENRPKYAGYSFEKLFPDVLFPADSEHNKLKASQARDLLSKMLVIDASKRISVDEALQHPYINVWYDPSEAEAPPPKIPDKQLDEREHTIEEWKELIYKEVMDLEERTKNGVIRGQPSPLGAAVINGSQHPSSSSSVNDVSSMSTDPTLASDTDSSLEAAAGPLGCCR

[16] = Toxicity in […] mouse xenografted with human MKN-45 cells assessed as heart damage at 25 to 50 mg/kg, po qd administered for 5 weeks by H and E staining based analysis; type: organism-based; details: in vivo, 840 h, dose 25-50 mg/kg
[17] = Toxicity in […] mouse xenografted with human MKN-45 cells assessed as liver damage at 25 to 50 mg/kg, po qd administered for 5 weeks by H and E staining based analysis; type: organism-based; details: in vivo, 840 h, dose 25-50 mg/kg
MKN-45 [18] = test: In vivo inhibition of STAT3 in human MKN-45 cells xenografted in BALB/c nude mouse assessed as reduction in STAT3 gene expression at 25 to 50 mg/kg, po qd administered for 5 weeks by Western blot analysis; type: functional, organism-based; details: dose 25-50 mg/kg
AGS [19] = test: Induction of apoptosis in human AGS cells assessed as early apoptic cells 5 nM incubated for 48 hrs by FITC-annexin V/propidium iodide staining based flow cytometry (reference value: 0.55%); type: functional
[20] = biological target: T1, Signal transducer and activator of transcription 3; test: Binding affinity to human STAT3 transfected in HEK293T cells assessed as change in melting temperature at 5 uM by thermal shift assay; type: cell-based
[21] = biological target: T1, Signal transducer and activator of transcription 3; test: Inhibition of STAT3 phosphorylation at Tyr705 residue in human MGC-803 cells upto 40 nM by Western blotting analysis; type: cell-based; details: time <= 24.0 hrs, TDE = time-dependent effect
AGS [22] = test: Potency index, ratio of IC50 for BBI608 to IC50 for test compound for antiproliferative activity against human AGS cells assessed as reduction in cell viability incubated for 72 hrs by MTS assay; type: functional
Cytochrome P450 2D6 = Cytochrome P450 2D6 (Homo sapiens, UniProt P10635); test: Inhibition of CYP2D6 in human liver microsome; type: ADME, microsomes
Sequence of Cytochrome P450 2D6 (P10635 whole entry): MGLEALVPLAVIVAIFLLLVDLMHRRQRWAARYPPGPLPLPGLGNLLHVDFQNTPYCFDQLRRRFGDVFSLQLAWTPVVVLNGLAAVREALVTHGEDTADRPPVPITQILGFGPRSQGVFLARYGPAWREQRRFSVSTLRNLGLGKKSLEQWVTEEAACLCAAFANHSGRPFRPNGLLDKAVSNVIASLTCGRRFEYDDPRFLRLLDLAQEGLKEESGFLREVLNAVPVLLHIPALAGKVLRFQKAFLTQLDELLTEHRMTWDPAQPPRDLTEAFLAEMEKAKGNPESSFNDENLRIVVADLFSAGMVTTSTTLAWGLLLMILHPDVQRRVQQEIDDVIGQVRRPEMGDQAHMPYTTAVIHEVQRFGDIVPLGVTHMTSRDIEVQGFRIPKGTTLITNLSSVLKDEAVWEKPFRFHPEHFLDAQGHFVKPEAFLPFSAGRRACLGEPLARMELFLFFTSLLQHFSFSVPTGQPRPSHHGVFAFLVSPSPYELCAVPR

Cytochrome P450 1A2 = biological target: T2, Cytochrome P450 1A2 (Homo sapiens, UniProt P05177); test: Inhibition of CYP1A2 in human liver microsome; type: ADME, microsomes
T2 sequence (P05177 whole entry): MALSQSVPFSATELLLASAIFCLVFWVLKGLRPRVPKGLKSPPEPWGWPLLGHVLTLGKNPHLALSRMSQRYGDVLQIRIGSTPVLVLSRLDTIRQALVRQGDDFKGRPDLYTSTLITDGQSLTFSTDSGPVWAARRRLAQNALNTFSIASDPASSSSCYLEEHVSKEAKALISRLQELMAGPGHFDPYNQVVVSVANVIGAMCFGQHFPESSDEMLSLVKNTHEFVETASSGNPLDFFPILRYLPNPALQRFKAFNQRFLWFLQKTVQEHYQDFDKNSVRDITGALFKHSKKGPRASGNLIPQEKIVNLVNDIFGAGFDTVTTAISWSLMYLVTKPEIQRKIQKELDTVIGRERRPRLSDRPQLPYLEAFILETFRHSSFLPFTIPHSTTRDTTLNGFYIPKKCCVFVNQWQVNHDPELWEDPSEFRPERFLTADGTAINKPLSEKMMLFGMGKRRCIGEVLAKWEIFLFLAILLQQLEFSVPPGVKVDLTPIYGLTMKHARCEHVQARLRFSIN

[23] = biological target: T1, Signal transducer and activator of transcription 3; test: Inhibition of STAT3 in human MKN-45 cells assessed as downregulation of Bcl2 expression at 10 to 40 nM incubated for 24 hrs by RT-PCR analysis; type: cell-based; details: dose 10-40 nM
MKN-45 [24] = test: Induction of apoptosis in human MKN-45 cells assessed as viable cells at 5 nM incubated for 48 hrs by FITC-annexin V/propidium iodide staining based flow cytometry (reference value: 68%); type: functional; details: read-out: Activity
[25] = Toxicity in BALB/c nude mouse xenografted with human MKN-45 cells assessed as spleen damage at 25 to 50 mg/kg, po qd administered for 5 weeks by H and E staining based analysis; type: organism-based; details: in vivo, 840 h, dose 25-50 mg/kg
[26] = Toxicity in BALB/c nude mouse xenografted with human MKN-45 cells assessed as heart damage at 25 to 50 mg/kg, po qd administered for 5 weeks by H and E staining based analysis; type: organism-based; details: in vivo, 840 h, dose 25-50 mg/kg

inhibition [5]: Dde
inhibition [6]: Active
inhibition [8]: Active
IC50 (AGS [9]): 0.0135 µM
inhibition [10]: Dde
IC50 (Cytochrome P450 3A4): > 50 µM
inhibition [13]: Active
IC50 [15]: > 10 µM
Activity [20]: Active
inhibition [21]: Tde
IC50 (Cytochrome P450 2D6): > 50 µM
IC50 (Cytochrome P450 1A2): > 50 µM
inhibition [23]: Active
SMILES: O=C(c1ccc(-c2noc(-c3ccc(C(F)(F)F)cc3)n2)cc1)N1CCN(Cc2ccc(OCC(F)(F)F)cc2)CC1
inhibition (MGC-803 [1]): Active
viability at 0.01 µM (MKN-45 [2]): 68.5%
viability at 0.01 µM (AGS [3]): 82.3%
Activity (AGS [4]): 3.8%
Activity (MKN-45 [7]): 4.73%
inhibition (MKN-45 [11]): Active
Activity (MKN-45 [12]): Active
Activity (MGC-803 [14]): Dde
Activity [16]: Non-Toxic
Activity [17]: Non-Toxic
inhibition (MKN-45 [18]): Active
Activity (AGS [19]): 2.7%
Ratio IC50 (AGS [22]): 30
viability at 0.005 µM (MKN-45 [24]): 69.6%
Activity [25]: Non-Toxic
Activity [26]: Non-Toxic
